# Source: patent US9738634B2, “Heterocyclic amide compound and herbicide” (SYNGENTA PARTICIPATIONS AG, priority 2013, dated 2017)
# Assays:
# barnyard grass [1] = assay: Test Example 4: weedkilling efficacy by foliar treatment; F: barnyard grass; type: in vivo; conditions: treatment dosage 320 g/ha
# Outline: (§1)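 Seeds are spot-sown into sterilized diluvial soil and covered with about 1.5 cm of soil. After 14 days' greenhouse growth at 25 to 30° C, plants are sprayed on stems and leaves with diluted emulsion at the stated g/ha rate, then scored at 3 weeks.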
# birds-eye speedwell [2] = assay: Test Example 4: weedkilling efficacy by foliar treatment; p: birds-eye speedwell; type: in vivo; conditions: treatment dosage 320 g/ha
# Outline: as §1
# catchweed [3] = assay: Test Example 3: weedkilling efficacy through soil treatment; O: catchweed; type: in vivo; conditions: treatment dosage 320 g/ha
# Outline: (§2)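 Crop and weed responses were judged three weeks after a uniform surface spray of the water-diluted emulsion at the given g/ha rate. Seeds sat beneath about 1.5 cm of sterilized diluvial soil, and boxes stood in a greenhouse at 25 to 30° C.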
# bulrush [4] = assay: Test Example 1: weedkilling efficacy, preemergent weed treatment in the submerged state; B: bulrush; type: in vivo; conditions: treatment dosage 320 g/ha
# Outline: (§3)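 Alluvial soil in Wagner pots flooded to 4 cm; barnyard grass, bulrush and oval-leafed pondweed seeds sown, then 2.5-leaf rice seedlings transplanted. Same day, emulsified compound diluted in water to set g/ha dosages and applied to water surface; greenhouse 25–30 °C, effect scored by criteria after 3 weeks.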
# oval-leafed pondweed [5] = assay: Test Example 2: weedkilling efficacy, growth period weed treatment in the submerged state; C: oval-leafed pondweed; type: in vivo; conditions: treatment dosage 320 g/ha
# Outline: (§4)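 First, alluvial soil in pots is flooded to 4 cm and mixed seed is sown. Next, plants grow in a greenhouse at 25 to 30° C until the 1-2 leaf stage. Then diluted emulsion is applied onto the water surface at the given g/ha rate, and injury is assessed after 3 weeks.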
# wheat [6] = assay: Test Example 4: foliar treatment, effect on crop; e: wheat; type: in vivo; conditions: treatment dosage 320 g/ha
# Outline: as §1
# redroot pigweed [7] = assay: Test Example 4: weedkilling efficacy by foliar treatment; L: redroot pigweed; type: in vivo; conditions: treatment dosage 320 g/ha
# Outline: as §1
# Indian mallow [8] = assay: Test Example 4: weedkilling efficacy by foliar treatment; K: Indian mallow; type: in vivo; conditions: treatment dosage 320 g/ha
# Outline: as §1
# wheat [9] = assay: Test Example 3: soil treatment, effect on crop; e: wheat; type: in vivo; conditions: treatment dosage 320 g/ha
# Outline: as §2
# wild oat [10] = assay: Test Example 3: weedkilling efficacy through soil treatment; G: wild oat; type: in vivo; conditions: treatment dosage 320 g/ha
# Outline: as §2
# black-grass [11] = assay: Test Example 4: weedkilling efficacy by foliar treatment; H: black-grass; type: in vivo; conditions: treatment dosage 320 g/ha
# Outline: as §1
# redroot pigweed [12] = assay: Test Example 3: weedkilling efficacy through soil treatment; L: redroot pigweed; type: in vivo; conditions: treatment dosage 320 g/ha
# Outline: as §2
# rapeseed [13] = assay: Test Example 4: foliar treatment, effect on crop; g: rapeseed; type: in vivo; conditions: treatment dosage 320 g/ha
# Outline: as §1
# wild oat [14] = assay: Test Example 4: weedkilling efficacy by foliar treatment; G: wild oat; type: in vivo; conditions: treatment dosage 320 g/ha
# Outline: as §1
# barnyard grass [15] = assay: Test Example 1: weedkilling efficacy, preemergent weed treatment in the submerged state; A: barnyard grass; type: in vivo; conditions: treatment dosage 320 g/ha
# Outline: as §3
# directly sown rice [16] = assay: Test Example 3: soil treatment, effect on crop; b: directly sown rice; type: in vivo; conditions: treatment dosage 320 g/ha
# Outline: as §2
# chickweed [17] = assay: Test Example 4: weedkilling efficacy by foliar treatment; N: chickweed; type: in vivo; conditions: treatment dosage 320 g/ha
# Outline: as §1
# corn [18] = assay: Test Example 3: soil treatment, effect on crop; c: corn; type: in vivo; conditions: treatment dosage 320 g/ha
# Outline: as §2
# fig-leafed goosefoot [19] = assay: Test Example 3: weedkilling efficacy through soil treatment; M: fig-leafed goosefoot; type: in vivo; conditions: treatment dosage 320 g/ha
# Outline: as §2
# corn [20] = assay: Test Example 4: foliar treatment, effect on crop; c: corn; type: in vivo; conditions: treatment dosage 320 g/ha
# Outline: as §1
# birds-eye speedwell [21] = assay: Test Example 3: weedkilling efficacy through soil treatment; p: birds-eye speedwell; type: in vivo; conditions: treatment dosage 320 g/ha
# Outline: as §2
# soybean [22] = assay: Test Example 3: soil treatment, effect on crop; d: soybean; type: in vivo; conditions: treatment dosage 320 g/ha
# Outline: as §2
# black-grass [23] = assay: Test Example 3: weedkilling efficacy through soil treatment; H: black-grass; type: in vivo; conditions: treatment dosage 320 g/ha
# Outline: as §2
# crabgrass [24] = assay: Test Example 3: weedkilling efficacy through soil treatment; D: crabgrass; type: in vivo; conditions: treatment dosage 320 g/ha
# Outline: as §2
# Italian ryegrass [25] = assay: Test Example 3: weedkilling efficacy through soil treatment; I: Italian ryegrass; type: in vivo; conditions: treatment dosage 320 g/ha
# Outline: as §2
# beet [26] = assay: Test Example 3: soil treatment, effect on crop; f: beet; type: in vivo; conditions: treatment dosage 320 g/ha
# Outline: as §2
# oval-leafed pondweed [27] = assay: Test Example 1: weedkilling efficacy, preemergent weed treatment in the submerged state; C: oval-leafed pondweed; type: in vivo; conditions: treatment dosage 320 g/ha
# Outline: as §3
# beet [28] = assay: Test Example 4: foliar treatment, effect on crop; f: beet; type: in vivo; conditions: treatment dosage 320 g/ha
# Outline: as §1
# rapeseed [29] = assay: Test Example 3: soil treatment, effect on crop; g: rapeseed; type: in vivo; conditions: treatment dosage 320 g/ha
# Outline: as §2
# fig-leafed goosefoot [30] = assay: Test Example 4: weedkilling efficacy by foliar treatment; M: fig-leafed goosefoot; type: in vivo; conditions: treatment dosage 320 g/ha
# Outline: as §1
# barnyard grass [31] = assay: Test Example 2: weedkilling efficacy, growth period weed treatment in the submerged state; A: barnyard grass; type: in vivo; conditions: treatment dosage 320 g/ha
# Outline: as §4
# barnyard grass [32] = assay: Test Example 3: weedkilling efficacy through soil treatment; F: barnyard grass; type: in vivo; conditions: treatment dosage 320 g/ha
# Outline: as §2
# chickweed [33] = assay: Test Example 3: weedkilling efficacy through soil treatment; N: chickweed; type: in vivo; conditions: treatment dosage 320 g/ha
# Outline: as §2
# green foxtail [34] = assay: Test Example 4: weedkilling efficacy by foliar treatment; E: green foxtail; type: in vivo; conditions: treatment dosage 320 g/ha
# Outline: as §1
# transplanted rice = assay: Test Example 1: preemergent weed treatment in the submerged state, effect on crop; a: transplanted rice; type: in vivo; conditions: treatment dosage 320 g/ha
# Outline: as §3
# green foxtail [35] = assay: Test Example 3: weedkilling efficacy through soil treatment; E: green foxtail; type: in vivo; conditions: treatment dosage 320 g/ha
# Outline: as §2
# bulrush [36] = assay: Test Example 2: weedkilling efficacy, growth period weed treatment in the submerged state; B: bulrush; type: in vivo; conditions: treatment dosage 320 g/ha
# Outline: as §4
# Italian ryegrass [37] = assay: Test Example 4: weedkilling efficacy by foliar treatment; I: Italian ryegrass; type: in vivo; conditions: treatment dosage 320 g/ha
# Outline: as §1
# common wind-grass [38] = assay: Test Example 4: weedkilling efficacy by foliar treatment; J: common wind-grass; type: in vivo; conditions: treatment dosage 320 g/ha
# Outline: as §1
# Indian mallow [39] = assay: Test Example 3: weedkilling efficacy through soil treatment; K: Indian mallow; type: in vivo; conditions: treatment dosage 320 g/ha
# Outline: as §2
# crabgrass [40] = assay: Test Example 4: weedkilling efficacy by foliar treatment; D: crabgrass; type: in vivo; conditions: treatment dosage 320 g/ha
# Outline: as §1
# common wind-grass [41] = assay: Test Example 3: weedkilling efficacy through soil treatment; J: common wind-grass; type: in vivo; conditions: treatment dosage 320 g/ha
# Outline: as §2
# directly sown rice [42] = assay: Test Example 4: foliar treatment, effect on crop; b: directly sown rice; type: in vivo; conditions: treatment dosage 320 g/ha
# Outline: as §1
# catchweed [43] = assay: Test Example 4: weedkilling efficacy by foliar treatment; O: catchweed; type: in vivo; conditions: treatment dosage 320 g/ha
# Outline: as §1
# soybean [44] = assay: Test Example 4: foliar treatment, effect on crop; d: soybean; type: in vivo; conditions: treatment dosage 320 g/ha
# Outline: as §1
smiles,measurement,setting,value
"CCC1N=CSN1NC(=O)C(C)(C)N1COC(C)=C(c2ccsc2)C1=O (centres unmarked) [B-1-02, N-(3-ethyl-1,2,4-thiadiazol-2-yl)-2-methyl-2-[6-methyl-4-oxo-5-(thiophen-3-yl)-2H-1,3-oxazin-3(4H)-yl]propionamide]",melting point,,171 to 172 °C
"CCCN(C(=O)C(C)(C)N1COCN(c2ccccc2)C1=O)c1cc(C(F)(F)F)ccn1 [A-5-05, 2-methyl-2-(4-oxo-5-phenyl-1,3,5-oxadiazinan-3-yl)-N-propyl-N-[4-(trifluoromethyl)-pyridin-2-yl]propionamide]",melting point,,163 to 164 °C
CC1=C(c2ccccc2)C(=O)N(C(C)(C)C(=O)Nc2cc(C(F)F)ccn2)CO1 [B-2-54],F (barnyard grass) weedkilling efficacy grade,barnyard grass [1],"5 (weed kill ratio 90% or more, (practically complete withering))"
same,P (birds-eye speedwell) weedkilling efficacy grade,birds-eye speedwell [2],"4 (weed kill ratio 70% or more, less than 90%)"
same,O (catchweed) weedkilling efficacy grade,catchweed [3],"4 (weed kill ratio 70% or more, less than 90%)"
same,B (bulrush) weedkilling efficacy grade,bulrush [4],"5 (weed kill ratio 90% or more, (practically complete withering))"
same,C (oval-leafed pondweed) weedkilling efficacy grade,oval-leafed pondweed [5],"5 (weed kill ratio 90% or more, (practically complete withering))"
same,e (wheat) effect on crop grade,wheat [6],0 (weed kill ratio 5% or less (practically no effect))
same,L (redroot pigweed) weedkilling efficacy grade,redroot pigweed [7],"4 (weed kill ratio 70% or more, less than 90%)"
same,K (Indian mallow) weedkilling efficacy grade,Indian mallow [8],"4 (weed kill ratio 70% or more, less than 90%)"
same,e (wheat) effect on crop grade,wheat [9],0 (weed kill ratio 5% or less (practically no effect))
same,G (wild oat) weedkilling efficacy grade,wild oat [10],"5 (weed kill ratio 90% or more, (practically complete withering))"
same,H (black-grass) weedkilling efficacy grade,black-grass [11],"5 (weed kill ratio 90% or more, (practically complete withering))"
same,L (redroot pigweed) weedkilling efficacy grade,redroot pigweed [12],"4 (weed kill ratio 70% or more, less than 90%)"
same,g (rapeseed) effect on crop grade,rapeseed [13],"4 (weed kill ratio 70% or more, less than 90%)"
same,G (wild oat) weedkilling efficacy grade,wild oat [14],"5 (weed kill ratio 90% or more, (practically complete withering))"
same,A (barnyard grass) weedkilling efficacy grade,barnyard grass [15],"5 (weed kill ratio 90% or more, (practically complete withering))"
same,b (directly sown rice) effect on crop grade,directly sown rice [16],"5 (weed kill ratio 90% or more, (practically complete withering))"
same,N (chickweed) weedkilling efficacy grade,chickweed [17],"4 (weed kill ratio 70% or more, less than 90%)"
same,c (corn) effect on crop grade,corn [18],"2 (weed kill ratio 20% or more, less than 40%)"
same,M (fig-leafed goosefoot) weedkilling efficacy grade,fig-leafed goosefoot [19],"3 (weed kill ratio 40% or more, less than 70%)"
same,c (corn) effect on crop grade,corn [20],"3 (weed kill ratio 40% or more, less than 70%)"
same,P (birds-eye speedwell) weedkilling efficacy grade,birds-eye speedwell [21],"5 (weed kill ratio 90% or more, (practically complete withering))"
same,d (soybean) effect on crop grade,soybean [22],0 (weed kill ratio 5% or less (practically no effect))
same,H (black-grass) weedkilling efficacy grade,black-grass [23],"5 (weed kill ratio 90% or more, (practically complete withering))"
same,D (crabgrass) weedkilling efficacy grade,crabgrass [24],"5 (weed kill ratio 90% or more, (practically complete withering))"
same,I (Italian ryegrass) weedkilling efficacy grade,Italian ryegrass [25],"5 (weed kill ratio 90% or more, (practically complete withering))"
same,f (beet) effect on crop grade,beet [26],"4 (weed kill ratio 70% or more, less than 90%)"
same,C (oval-leafed pondweed) weedkilling efficacy grade,oval-leafed pondweed [27],"5 (weed kill ratio 90% or more, (practically complete withering))"
same,f (beet) effect on crop grade,beet [28],"4 (weed kill ratio 70% or more, less than 90%)"
same,g (rapeseed) effect on crop grade,rapeseed [29],"4 (weed kill ratio 70% or more, less than 90%)"
same,M (fig-leafed goosefoot) weedkilling efficacy grade,fig-leafed goosefoot [30],"4 (weed kill ratio 70% or more, less than 90%)"
same,A (barnyard grass) weedkilling efficacy grade,barnyard grass [31],"5 (weed kill ratio 90% or more, (practically complete withering))"
same,F (barnyard grass) weedkilling efficacy grade,barnyard grass [32],"5 (weed kill ratio 90% or more, (practically complete withering))"
same,N (chickweed) weedkilling efficacy grade,chickweed [33],"4 (weed kill ratio 70% or more, less than 90%)"
same,E (green foxtail) weedkilling efficacy grade,green foxtail [34],"5 (weed kill ratio 90% or more, (practically complete withering))"
same,a (transplanted rice) effect on crop grade,transplanted rice,"5 (weed kill ratio 90% or more, (practically complete withering))"
same,E (green foxtail) weedkilling efficacy grade,green foxtail [35],"5 (weed kill ratio 90% or more, (practically complete withering))"
same,B (bulrush) weedkilling efficacy grade,bulrush [36],"5 (weed kill ratio 90% or more, (practically complete withering))"
same,I (Italian ryegrass) weedkilling efficacy grade,Italian ryegrass [37],"5 (weed kill ratio 90% or more, (practically complete withering))"
same,J (common wind-grass) weedkilling efficacy grade,common wind-grass [38],"5 (weed kill ratio 90% or more, (practically complete withering))"
same,K (Indian mallow) weedkilling efficacy grade,Indian mallow [39],"3 (weed kill ratio 40% or more, less than 70%)"
same,D (crabgrass) weedkilling efficacy grade,crabgrass [40],"5 (weed kill ratio 90% or more, (practically complete withering))"
same,J (common wind-grass) weedkilling efficacy grade,common wind-grass [41],"5 (weed kill ratio 90% or more, (practically complete withering))"
same,b (directly sown rice) effect on crop grade,directly sown rice [42],"5 (weed kill ratio 90% or more, (practically complete withering))"
same,O (catchweed) weedkilling efficacy grade,catchweed [43],"4 (weed kill ratio 70% or more, less than 90%)"
same,d (soybean) effect on crop grade,soybean [44],"4 (weed kill ratio 70% or more, less than 90%)"
